Marks after values point to notes of the source that are not given here.

A word on the IC50: it is the concentration that gives 50% inhibition. The solubility is the concentration that dissolves in the medium under given conditions.

One data set has as its system NFκB. In words: Inhibitory action on the NFκB activity, luciferase assay in SW480/NRE-Luc cells. The data set is classed as cell-based, human. Conditions: for NFκB inhibitory activity IC50: SW480/NRE-Luc cells, compound 1 h then 50 ng/mL TNFα 4 h, luciferase; for IC50: Homo sapiens, SW480, read-out: NFκB inhibitory activity IC50. In short, it runs like this: (§1)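 Stable SW480 colon cancer lines carried luciferase driven by a 5× NFκB response element or by the SV40 promoter. Compound was added 1 h before 50 ng/mL TNFα, followed by 4 h culture at 37 °C; luminescence was read and IC50 taken as 50% inhibition of induced luciferase expression.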

Another data set relates to SV40 promoter. In words: SV40 promoter activity, luciferase assay in SW480/SV40-Luc cells. The data set is classed as cell-based, human. As to conditions: for SV40 promoter inhibitory activity IC50: SW480/SV40-Luc cells, luciferase; for IC50: Homo sapiens, SW480, read-out: SV40 promoter inhibitory activity IC50. In short, it runs like this:
as §1

The test system of data set [1] is human non-small cell lung cancer A549 cells. In words: Inhibitory action on the proliferation of A549 cells. Format: cell-based. As to conditions: 96 hours, TetraColor ONE; for IC50: Homo sapiens, A549. In short, it runs like this:
(§2)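 Cells seeded overnight (SW480 2000/well in 10% FBS/RPMI1640; A549, HT-29 1000/well in 10% FBS DMEM or DMEM F12 HAM), then compound-treated at 37 °C, 5% CO2 for 48 h (SW480) or 96 h (A549, HT-29). Viable cells counted by TetraColor ONE; IC50 for 50% proliferation inhibition.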

Data set [2] has as its system human colon cancer HT-29 cells. Description: Inhibitory action on the proliferation of HT-29 cells. The data set is classed as cell-based. Conditions: 96 hours, TetraColor ONE; for IC50: Homo sapiens, HT-29. In short, it runs like this: as §2
The subject of data set [3] is mouse fibrosarcoma Meth A cells. Description: Antitumor effect in mice transplanted with mouse fibrosarcoma Meth A cells. Format: in vivo. Conditions: intravenous on days 1, 5, 9, tumor weight day 21, BALB/c mice. As to the method:
The antitumor effect of the phenanthroindolizidine alkaloid compound of the present invention in vivo was studied using mice transplanted with mouse fibrosarcoma Meth A cells. Meth A cells were transplanted subcutaneously in the inguinal region of male 7-week-old BALB/c mice (2.5×10^5 cells/mouse). Subsequently, on days 1, 5, and 9, the compound of the present invention was intravenously administered. To a control group, physiological saline, a solvent, was administered. On day 21 after the cell transplantation, tumor was excised and measured for its weight, and subsequently a tumor growth-inhibition rate IR (%) was obtained by the following formula. Tumor growth-inhibition rate IR (%)=(1−the weight of the tumor in an administration group/the weight of the tumor in a control group)×100

For data set [4], the system named is human colon cancer SW480 cells. In words: Inhibitory action on the proliferation of SW480 cells. As to conditions: 48 hours, TetraColor ONE; for IC50: Homo sapiens, SW480. The data set is classed as cell-based. In short, it runs like this:
as §2

Data set [5] deals with human colon cancer HCT116 cells. Description: Antitumor effect in mice transplanted with human colon cancer HCT116 cells. Format: in vivo, mouse. As to conditions: intraperitoneal days 1-5 and 8-12, tumor weight day 21, BALB/c nude mice. An excerpt: The antitumor effect of the phenanthroindolizidine alkaloid compound of the present invention in vivo was studied using mice transplanted with human colon cancer HCT116 cells. HCT116 cells were transplanted subcutaneously in the inguinal region of male 6-week-old BALB/c nude mice (2×10^6 cells/mouse). On days 1 to 5 and on days 8 to 12 after the time at which the estimated tumor volume obtained by ½ab^2 (a and b indicate the major axis and the minor axis of tumor, respectively) reached approximately 100 mm^3 (day 0), the compound of the present invention was administered (intraperitoneal administration). To a control group, a 5% glucose solution, a solvent, was administered. On day 21, tumor was excised and measured for its weight, and subsequently a tumor proliferation-inhibition rate IR (%) was calculated.

The subject of data set [6] is mice transplanted with mouse fibrosarcoma Meth A cells. In words: Animal toxicity test. The data set is classed as in vivo. As to conditions: intravenous days 1, 5, 9, observed three weeks. Here is the method: Also, the toxicity of known phenanthroindolizidine alkaloid compounds, namely (12aS,13S)-6,7-dimethoxy-9,10,11,12,12a,13-hexahydro-9a-aza-cyclopenta[b]triphenylene-3,13-diol (known compound 1; refer to WO01/023384) and (12aS,13S)-3,6,7-trimethoxy-9,10,11,12,12a,13-hexahydro-9a-aza-cyclopenta[b]triphenylene-13-ol (known compound 2; refer to Planta Med., 2002, 68: 186-188), was simultaneously studied. To a control group, a physiological saline solution, a solvent, was administered. As a result, as shown in the following Tables 35 and 36, all the mice survived in a group administered with the compound of the present invention.

Another data set in a line: Solubility of the salts. As to conditions: aqueous solution of 5% glucose, saline or isotonic. The text has this: In in vivo studies, each compound was used in the form of a salt.

As for `COC(=O)Oc1ccc2c3c(c4cc(OC)c(OC)cc4c2c1)CN1CCC[C@H]1[C@H]3O.Cl` [Compound 17, carbonic acid(12aS,13S)-13-hydroxy-6,7-dimethoxy-9,10,11,12,12a,13-hexahydro-9a-aza-cyclopenta[b]triphenylene-3-yl ester methyl ester hydrochloride], the “NFκB inhibitory activity IC50” value in the data set on NFκB was determined as 0.83 ng/mL. Further, in the data set on SV40 promoter, the “SV40 promoter inhibitory activity IC50” value is listed as more than 100 ng/mL. Besides, the “A549 proliferation inhibitory action IC50” value in data set [1] was determined as 0.53 ng/mL. The “HT-29 proliferation inhibitory action IC50” value in data set [2] was found to be 0.067 ng/mL. In addition, the figures for the “Tumor growth inhibition rate IR” value in data set [3] (total dose 25 mg/kg) and in data set [3] (total dose 50 mg/kg) were 54.2* % and 50.0%, respectively. The “SW480 proliferation inhibitory action IC50” value in [4] is on record as 0.63 ng/mL.
As for `COc1cc2c3c(c4ccc(NC(C)=O)cc4c2cc1OC)C[C@@H]1CCCN1C3.CS(=O)(=O)O` [Compound 56, N-((S)-6,7-dimethoxy-9,10,11,12,12a,13-hexahydro-9a-aza-cyclopenta[b]triphenylene-3-yl)-acetamide methanesulfonate], the 50% inhibitory concentration (IC50) in the data set on NFκB is 2.9 ng/mL; with SV40 promoter it was more than 10 ng/mL; in [1], 2.2 ng/mL; in data set [2] it was 2.4 ng/mL; in [4] it was 4.8 ng/mL. For the same compound, the “Tumor growth inhibition rate IR” value was 39.1** % in [5] (total dose 50 mg/kg) and 68.9** % in data set [5] (total dose 100 mg/kg).
On to `COC(=O)CCC(=O)Oc1ccc2c3c(c4cc(OC)c(OC)cc4c2c1)CN1CCC[C@H]1C3.CS(=O)(=O)O` [Compound 46, succinic acid(S)-6,7-dimethoxy-9,10,11,12,12a,13-hexahydro-9a-aza-cyclopenta[b]triphenylene-3-yl ester methyl ester methanesulfonate], for which, in the data set on NFκB, the “NFκB inhibitory activity IC50” value is listed as 0.13 ng/mL. Further, the “SV40 promoter inhibitory activity IC50” value in the data set with SV40 promoter is given as more than 1000 ng/mL. Besides, the “A549 proliferation inhibitory action IC50” value in data set [1] was determined as 1.2 ng/mL. Further, the “Tumor growth inhibition rate IR” value in data set [5] (total dose 200 mg/kg) is reported as 34.6** %. Further, in [2], the “HT-29 proliferation inhibitory action IC50” value is 2.1 ng/mL. In addition, in data set [4], the “SW480 proliferation inhibitory action IC50” value was determined as 0.36 ng/mL.
Turning to `COc1cc2c3c(c4cccc(O)c4c2cc1OC)C[C@@H]1CCCN1C3.Cl` [Compound 40, (S)-6,7-dimethoxy-9,10,11,12,12a,13-hexahydro-9a-aza-cyclopenta[b]triphenylene-4-ol hydrochloride], the IC50 with NFκB was 2.4 ng/mL; with SV40 promoter, more than 1000 ng/mL; in [1], 3.3 ng/mL; in data set [2] it was 67.9 ng/mL; in data set [4] it was 4 ng/mL. Further, the “Tumor growth inhibition rate IR” value was 25.8% in data set [3] (total dose 25 mg/kg) and 45.1* % in data set [3] (total dose 50 mg/kg). Also, the Mortality rate in data set [6] (total dose 25 mg/kg) and in data set [6] (total dose 50 mg/kg) was 0/5 throughout.
For `COC(=O)CCC(=O)Oc1ccc2c3c(c4cc(OC)c(OC)cc4c2c1)CN1CCC[C@H]1[C@H]3O.Cl` [Compound 16, succinic acid(12aS,13S)-13-hydroxy-6,7-dimethoxy-9,10,11,12,12a,13-hexahydro-9a-aza-cyclopenta[b]triphenylene-3-yl ester methyl ester hydrochloride], the “NFκB inhibitory activity IC50” value in the data set on NFκB turned out to be 0.37 ng/mL. Besides, the “SV40 promoter inhibitory activity IC50” value in the data set on SV40 promoter was more than 100 ng/mL. The “A549 proliferation inhibitory action IC50” value in data set [1] stood at 0.59 ng/mL. Also, the “HT-29 proliferation inhibitory action IC50” value in [2] is recorded as 0.17 ng/mL. For the same compound, the “Tumor growth inhibition rate IR” value in [3] (total dose 25 mg/kg) is recorded as 48.8* %; in data set [3] (total dose 50 mg/kg), 39.1%. The “SW480 proliferation inhibitory action IC50” value in data set [4] stood at 0.76 ng/mL.
In the case of `COc1cc2c3c(c4ccc(OC(=O)c5ccco5)cc4c2cc1OC)[C@H](O)[C@@H]1CCCN1C3.Cl` [Compound 20, furan-2-carboxylic acid(12aS,13S)-13-hydroxy-6,7-dimethoxy-9,10,11,12,12a,13-hexahydro-9a-aza-cyclopenta[b]triphenylene-3-yl ester hydrochloride], the “NFκB inhibitory activity IC50” value in the data set on NFκB came to 0.46 ng/mL. Moreover, in the data set with SV40 promoter, the “SV40 promoter inhibitory activity IC50” value was more than 100 ng/mL. For the same compound, in [1], the “A549 proliferation inhibitory action IC50” value is given as 0.42 ng/mL. Further, the “HT-29 proliferation inhibitory action IC50” value in data set [2] turned out to be 0.76 ng/mL. For the same compound, the “Tumor growth inhibition rate IR” value is listed as 36.7% in [3] (total dose 25 mg/kg) and 53.0* % in data set [3] (total dose 50 mg/kg). Further, the Mortality rate in [6] (total dose 25 mg/kg) and in data set [6] (total dose 50 mg/kg) was 0/5 throughout. For the same compound, the “SW480 proliferation inhibitory action IC50” value in [4] is listed as 0.67 ng/mL.
For `COc1cc2c3c(c4ccc(OC(=O)c5ccco5)cc4c2cc1OC)C[C@@H]1CCCN1C3.Cl` [Compound 38, furan-2-carboxylic acid(S)-6,7-dimethoxy-9,10,11,12,12a,13-hexahydro-9a-aza-cyclopenta[b]triphenylene-3-yl ester hydrochloride], in the data set on NFκB, the “NFκB inhibitory activity IC50” value is listed as 0.50 ng/mL. The “SV40 promoter inhibitory activity IC50” value in the data set with SV40 promoter is given as more than 1000 ng/mL. For the same compound, in data set [1], the “A549 proliferation inhibitory action IC50” value was found to be 1.1 ng/mL. Moreover, the “HT-29 proliferation inhibitory action IC50” value in data set [2] came out at 3.2 ng/mL. Moreover, the Mortality rate in [6] (total dose 25 mg/kg) and in [6] (total dose 50 mg/kg) was 0/5 in each case. Also, the “SW480 proliferation inhibitory action IC50” value in [4] came to 0.62 ng/mL.
Take `COc1cc2c3c(c4cccc(O)c4c2cc1OC)[C@H](O)[C@@H]1CCCN1C3.CS(=O)(=O)O` [Compound 43, (12aS,13S)-6,7-dimethoxy-9,10,11,12,12a,13-hexahydro-9a-aza-cyclopenta[b]triphenylene-4,13-diol methanesulfonate]: the IC50 was 2.7 ng/mL with NFκB; more than 1000 ng/mL with SV40 promoter; 4.4 ng/mL in [1]; 100 ng/mL in data set [2]; 6.2 ng/mL in data set [4]. In addition, the solubility in the data set “Solubility of the salts” came out at 11.2 mg/mL.
Take `COc1cc2c3c(c4ccc(F)cc4c2cc1OC)C[C@@H]1CCCN1C3.Cl` [Compound 31, (S)-3-fluoro-6,7-dimethoxy-9,10,11,12,12a,13-hexahydro-9a-aza-cyclopenta[b]triphenylene hydrochloride]: the IC50 in the data set with NFκB is 28.8 ng/mL; in the data set on SV40 promoter it was more than 1000 ng/mL; in data set [1] it was 1.5 ng/mL; in [2], 10.6 ng/mL; in data set [4] it was 50.2 ng/mL. In addition, the Mortality rate in data set [6] (total dose 25 mg/kg) and in data set [6] (total dose 50 mg/kg) was 0/5 in each case.
`COc1cc2c3c(c4ccccc4c2cc1OC)C[C@@H]1CCCN1C3.Cl` [Compound 32, (S)-6,7-dimethoxy-9,10,11,12,12a,13-hexahydro-9a-aza-cyclopenta[b]triphenylene hydrochloride]: the IC50 is 27.8 ng/mL in the data set on NFκB; more than 100 ng/mL with SV40 promoter; 0.7 ng/mL in [1]; 3.1 ng/mL in data set [2]; 39.3 ng/mL in data set [4]. Further, the Mortality rate in data set [6] (total dose 25 mg/kg) and in [6] (total dose 50 mg/kg) was 0/5 throughout.
As for `COc1cc2c3c(c4ccc(F)cc4c2cc1OC)[C@@H](O)[C@H]1CCCN1C3.Cl` [Compound 6, (12aR,13R)-3-fluoro-6,7-dimethoxy-9,10,11,12,12a,13-hexahydro-9a-aza-cyclopenta[b]triphenylene-13-ol hydrochloride], the IC50 is 166 ng/mL in the data set with NFκB; more than 10000 ng/mL with SV40 promoter; 34.1 ng/mL in data set [1]; 38.8 ng/mL in data set [2]; 567 ng/mL in [4]. Moreover, the Mortality rate in data set [6] (total dose 25 mg/kg) and in data set [6] (total dose 50 mg/kg) was 0/5 throughout.

The values are drawn from patent US8569327B2, “Phenanthroindolizidine derivative and NFκB inhibitor containing same as active ingredient” (Kabushiki Kaisha Yakult Honsha, priority 2008, dated 2013).
